# Read-outs that look alike come from different tables or passages of the source.
# Tests used:
# [1] = test system: cultured human mast cells; assay: Degranulation inhibition test using cultured human mast cells (IgE cross-linking, β-Hexosaminidase release); assay type: cell-based; settings: Mast cell, cultured human mast cells, read-out: human degranulation ave. IC50
# Summary of the method: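 Degranulation was triggered by anti-hIgE (10 μg/mL final, 30 min, 37 °C) after a 10-min compound pretreatment (DMSO 0.1%) of cord-blood CD34+-derived mast cells primed 5 days with IL-4 and IgE. β-Hexosaminidase in supernatant was measured with p-nitrophenyl-GlcNAc substrate (A405), expressed against water-lysed total; IC50 (M).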
# [2] = biological target: GST-Syk Full Protein (human) (Homo sapiens, UniProt P43405); assay: Syk kinase inhibition test (HTRF method); assay type: biochemical
# Summary of the method: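 HTRF read-out: after EDTA termination and 1 h with XL665-streptavidin and Eu-anti-phosphotyrosine, the 665/620 nm ratio was measured. The reaction ran 30 min at 20–25 °C with final 6.4 nM human GST-Syk, 250 nM biotinylated peptide, 100 μM ATP, pH 7.0 HEPES buffer, 2% DMSO.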
# [3] = anti-hIgE stimulation, β-Hexosaminidase index, average
# [4] = HTRF, 100 μM ATP, 30 min room temperature, average, read-out: sykHTRF ave IC50
# [5] = Tables 1-x, compounds A, read-out: sykHTRF ave IC50
# [6] = Tables 2-x, thiophene compounds B
# [7] = Tables 2-x, thiophene compounds B, read-out: sykHTRK ave IC50
SMILES,"IC50 [1, 3]","IC50 [2, 4]","IC50 ([1]; Tables 1-x, compounds A)","IC50 [2, 5]",also measured
"Cc1ccnc(Nc2cccc(-c3cnc([C@H]4CC[C@H](CNS(C)(=O)=O)CC4)s3)n2)c1 [Compound A-229, N-(trans-4-{5-[6-(4-methylpyridin-2-ylamino)pyridin-2-yl]thiazol-2-yl}cyclohexylmethyl)methanesulfonamide]",100 to 1000 nM,< 100 nM,–,–,–
CC(=O)N[C@@H](CCC(=O)OCc1ccccc1)c1ncc(-c2cccc(Nc3cc(C)ccn3)n2)s1 [Compound A-98],> 1000 nM,100 to 1000 nM,–,–,–
"CC(=O)c1ccc(-c2cccc(Nc3cc(C)ccn3)n2)s1 [Compound B-1, 1-{5-[6-(4-methylpyridin-2-ylamino)pyridin-2-yl]thiophen-2-yl}ethanone]",–,–,–,–,"IC50 [1, 6]: > 1000 nM; IC50 [2, 7]: < 100 nM"
CC(=O)N[C@@H](Cc1ccc(O)cc1)c1ncc(-c2cccc(Nc3cc(C)ccn3)n2)s1 [Compound A-99],100 to 1000 nM,100 to 1000 nM,–,–,–
"Cc1ccnc(Nc2cccc(-c3cnc(N4CCN(C(=O)CO)CC4)s3)n2)c1 [Compound A-439, 2-hydroxy-1-(4-{5-[6-(4-methylpyridin-2-ylamino)pyridin-2-yl]thiazol-2-yl}piperazin-1-yl)ethanone]",–,–,< 100 nM,< 100 nM,–
Cc1ccnc(Nc2cccc(-c3cnc(CNCCO)s3)n2)c1 [Compound A-216],> 1000 nM,100 to 1000 nM,–,–,–
Cc1ccnc(Nc2cccc(-c3cnc(CNC(=O)NCC(=O)O)s3)n2)c1 [Compound A-254],> 1000 nM,100 to 1000 nM,–,–,–
Cc1ccnc(Nc2cccc(-c3cnc(CNC(=O)c4cc(C)on4)s3)n2)c1 [Compound A-395],–,–,> 1000 nM,100 to 1000 nM,–
CC(=O)N1CCN(C(=O)c2ccc(-c3cccc(Nc4cc(C)ccn4)n3)s2)CC1 [Compound B-85],–,–,–,–,"IC50 [1, 6]: 100 to 1000 nM; IC50 [2, 7]: 100 to 1000 nM"
Cc1ccnc(Nc2cccc(-c3cnc(CN(C)C(=O)N(C)C)s3)n2)c1 [Compound A-357],> 1000 nM,100 to 1000 nM,–,–,–
Cc1ccnc(Nc2cccc(-c3cnc([C@H](C)NC(=O)[C@H](C)O)s3)n2)c1 [Compound A-32],100 to 1000 nM,100 to 1000 nM,–,–,–
"Cc1ccnc(Nc2cccc(-c3cnc(N4CCC(C(N)=O)CC4)s3)n2)c1 [Compound A-3, 1-{5-[6-(4-methylpyridin-2-ylamino)pyridin-2-yl]thiazol-2-yl}piperidine-4-carboxamide]",100 to 1000 nM,< 100 nM,–,–,–

# Second part, led by results:
"IC50 [1, 3]","IC50 [2, 4]","IC50 ([1]; Tables 1-x, compounds A)","IC50 [2, 5]",SMILES,also measured
> 1000 nM,< 100 nM,–,–,"Cc1ccnc(Nc2cccc(-c3cnc([C@H]4CC[C@H](CN5C[C@@H](O)[C@@H](O)C5)CC4)s3)n2)c1 [Compound A-314, (3R,4S)-1-(trans-4-{5-[6-(4-methylpyridin-2-ylamino)pyridin-2-yl]thiazol-2-yl}cyclohexylmethyl)pyrrolidin-3,4-diol]",–
–,–,100 to 1000 nM,100 to 1000 nM,Cc1ccnc(Nc2cccc(-c3cnc(CN4C(=O)CC(C)(C)CC4=O)s3)n2)c1 [Compound A-385],–
–,–,> 1000 nM,< 100 nM,"Cc1ccnc(Nc2cccc(-c3cnc(N4CCCC(C(=O)O)C4)s3)n2)c1 (stereo not shown) [Compound A-474, 1-{5-[6-(4-methylpyridin-2-ylamino)pyridin-2-yl]thiazol-2-yl}piperidine-3-carboxylic acid]",–
> 1000 nM,> 1000 nM,–,–,CNC(=O)Cc1ccnc(Nc2cccc(-c3cnc([C@@H]4CCC(=O)N4)s3)n2)c1 [Compound A-342],–
100 to 1000 nM,100 to 1000 nM,–,–,CC(=O)NCCCC[C@H](NC(C)=O)c1ncc(-c2cccc(Nc3cc(C)ccn3)n2)s1 [Compound A-64],–
> 1000 nM,100 to 1000 nM,–,–,Cc1ccnc(Nc2cccc(-c3cnc([C@H]4CC[C@H](C(=O)N5CCCCC5)CC4)s3)n2)c1 [Compound A-274],–
–,–,100 to 1000 nM,100 to 1000 nM,CC(=O)Oc1ccc(C(=O)N2CCC(c3ncc(-c4cccc(Nc5cc(C)ccn5)n4)s3)CC2)cc1 [Compound A-377],–
–,–,100 to 1000 nM,< 100 nM,"CC(=O)c1ccnc(Nc2cccc(-c3cnc(N4CCC[C@@H](C(=O)O)C4)s3)n2)c1 [Compound A-560, (R)-1-{5-[6-(4-acetylpyridin-2-ylamino)pyridin-2-yl]thiazol-2-yl}piperidine-3-carboxylic acid]",–

# Source: patent US7803801B2, “Aminopyridine compounds having Syk inhibitory activity” (Japan Tobacco, Inc., priority 2005, dated 2010)
